Where two headings read alike, the source gives them in different places.
Assays:
Format in all cases: biochemical
JAK3 = molecular target: T1, JAK3 (Homo sapiens, UniProt P52333); assay: Inhibition of a panel of kinases, in vitro HotSpot kinase assay: JAK3; settings: read-out: IC50 JAK3
T1 sequence (P52333 1-1124): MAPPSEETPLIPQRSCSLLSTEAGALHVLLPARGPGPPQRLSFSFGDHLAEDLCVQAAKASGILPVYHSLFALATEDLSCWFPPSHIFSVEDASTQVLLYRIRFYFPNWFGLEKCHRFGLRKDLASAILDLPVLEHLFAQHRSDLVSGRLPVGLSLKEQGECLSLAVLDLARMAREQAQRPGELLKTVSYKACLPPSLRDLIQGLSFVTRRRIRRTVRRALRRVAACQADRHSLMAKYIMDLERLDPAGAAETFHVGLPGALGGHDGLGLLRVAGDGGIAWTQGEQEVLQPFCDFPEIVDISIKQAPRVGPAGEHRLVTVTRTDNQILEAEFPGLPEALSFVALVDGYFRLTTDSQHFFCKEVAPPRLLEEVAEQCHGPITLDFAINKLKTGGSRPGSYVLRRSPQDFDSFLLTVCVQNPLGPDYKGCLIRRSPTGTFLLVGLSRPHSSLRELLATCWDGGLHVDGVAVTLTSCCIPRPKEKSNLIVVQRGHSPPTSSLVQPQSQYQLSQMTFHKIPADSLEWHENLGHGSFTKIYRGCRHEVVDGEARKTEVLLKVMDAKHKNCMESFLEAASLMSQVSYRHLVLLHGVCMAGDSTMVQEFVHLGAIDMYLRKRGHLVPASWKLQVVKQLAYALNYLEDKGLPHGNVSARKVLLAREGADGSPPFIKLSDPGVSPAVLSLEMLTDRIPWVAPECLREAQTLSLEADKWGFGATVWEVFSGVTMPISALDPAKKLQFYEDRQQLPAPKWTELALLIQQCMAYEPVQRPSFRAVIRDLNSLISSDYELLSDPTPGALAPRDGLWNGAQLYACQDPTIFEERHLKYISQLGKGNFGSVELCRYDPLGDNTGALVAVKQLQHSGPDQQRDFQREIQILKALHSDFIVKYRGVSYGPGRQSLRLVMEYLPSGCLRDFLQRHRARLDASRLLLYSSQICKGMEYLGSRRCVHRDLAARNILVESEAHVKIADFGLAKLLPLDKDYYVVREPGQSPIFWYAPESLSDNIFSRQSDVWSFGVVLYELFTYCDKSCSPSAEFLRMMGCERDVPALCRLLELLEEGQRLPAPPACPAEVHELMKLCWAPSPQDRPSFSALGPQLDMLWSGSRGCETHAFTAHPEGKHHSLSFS

EGFR = EGFR (Homo sapiens, UniProt P00533); assay: Inhibition of a panel of kinases, in vitro HotSpot kinase assay: EGFR
Description: (§1) The degree of inhibition of a panel of kinases is determined using the in vitro HotSpot kinase assay (purified enzymes, ^33P-ATP, an appropriate substrate and 1 μM ATP).

ITK = molecular target: T2, ITK (Homo sapiens, UniProt Q08881); assay: Inhibition of a panel of kinases, in vitro HotSpot kinase assay: ITK
T2 sequence (Q08881 1-620): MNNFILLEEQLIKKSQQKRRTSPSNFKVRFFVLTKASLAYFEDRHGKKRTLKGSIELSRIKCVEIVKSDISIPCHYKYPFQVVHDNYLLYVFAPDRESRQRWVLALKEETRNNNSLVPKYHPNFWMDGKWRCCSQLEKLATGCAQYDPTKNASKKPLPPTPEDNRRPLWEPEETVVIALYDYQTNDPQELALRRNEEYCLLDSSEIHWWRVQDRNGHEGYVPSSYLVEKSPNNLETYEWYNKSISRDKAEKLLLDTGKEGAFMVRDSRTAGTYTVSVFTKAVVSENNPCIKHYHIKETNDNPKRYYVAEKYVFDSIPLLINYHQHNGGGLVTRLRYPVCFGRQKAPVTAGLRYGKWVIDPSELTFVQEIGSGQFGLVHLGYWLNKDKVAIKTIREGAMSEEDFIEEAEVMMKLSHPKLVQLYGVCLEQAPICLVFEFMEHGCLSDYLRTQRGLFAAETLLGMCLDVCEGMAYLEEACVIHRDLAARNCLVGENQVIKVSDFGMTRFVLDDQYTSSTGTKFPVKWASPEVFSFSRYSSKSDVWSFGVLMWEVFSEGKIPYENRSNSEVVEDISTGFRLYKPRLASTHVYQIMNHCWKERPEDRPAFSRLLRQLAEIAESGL
Description: as §1

LCK = LCK (Homo sapiens, UniProt P06239); assay: Inhibition of a panel of kinases, in vitro HotSpot kinase assay: LCK; settings: read-out: IC50 LCK
TEC = molecular target: T3, TEC (Homo sapiens, UniProt P42680); assay: Inhibition of a panel of kinases, in vitro HotSpot kinase assay: TEC
T3 sequence (P42680 1-631): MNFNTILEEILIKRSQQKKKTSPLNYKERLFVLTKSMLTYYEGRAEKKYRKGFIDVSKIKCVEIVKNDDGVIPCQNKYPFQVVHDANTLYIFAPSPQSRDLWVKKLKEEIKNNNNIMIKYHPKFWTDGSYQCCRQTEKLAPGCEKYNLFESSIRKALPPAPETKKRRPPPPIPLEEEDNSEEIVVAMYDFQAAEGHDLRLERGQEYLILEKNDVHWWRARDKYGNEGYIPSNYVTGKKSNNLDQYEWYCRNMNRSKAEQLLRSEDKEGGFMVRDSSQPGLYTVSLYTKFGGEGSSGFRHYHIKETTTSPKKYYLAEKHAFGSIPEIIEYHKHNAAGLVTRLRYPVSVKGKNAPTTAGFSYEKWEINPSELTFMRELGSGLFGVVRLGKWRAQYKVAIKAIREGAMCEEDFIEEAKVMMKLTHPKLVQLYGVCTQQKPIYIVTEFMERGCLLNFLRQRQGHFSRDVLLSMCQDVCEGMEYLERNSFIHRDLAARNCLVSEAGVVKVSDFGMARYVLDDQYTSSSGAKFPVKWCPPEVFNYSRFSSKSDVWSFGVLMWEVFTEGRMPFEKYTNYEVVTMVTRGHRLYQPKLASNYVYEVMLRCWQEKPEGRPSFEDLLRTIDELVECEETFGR
Description: as §1

SRC = SRC (Homo sapiens, UniProt P12931); assay: Inhibition of a panel of kinases, in vitro HotSpot kinase assay: SRC
Description: as §1

[1] = Table 13, A compounds, 1 μM ATP

Chain of SRC (P12931 whole entry): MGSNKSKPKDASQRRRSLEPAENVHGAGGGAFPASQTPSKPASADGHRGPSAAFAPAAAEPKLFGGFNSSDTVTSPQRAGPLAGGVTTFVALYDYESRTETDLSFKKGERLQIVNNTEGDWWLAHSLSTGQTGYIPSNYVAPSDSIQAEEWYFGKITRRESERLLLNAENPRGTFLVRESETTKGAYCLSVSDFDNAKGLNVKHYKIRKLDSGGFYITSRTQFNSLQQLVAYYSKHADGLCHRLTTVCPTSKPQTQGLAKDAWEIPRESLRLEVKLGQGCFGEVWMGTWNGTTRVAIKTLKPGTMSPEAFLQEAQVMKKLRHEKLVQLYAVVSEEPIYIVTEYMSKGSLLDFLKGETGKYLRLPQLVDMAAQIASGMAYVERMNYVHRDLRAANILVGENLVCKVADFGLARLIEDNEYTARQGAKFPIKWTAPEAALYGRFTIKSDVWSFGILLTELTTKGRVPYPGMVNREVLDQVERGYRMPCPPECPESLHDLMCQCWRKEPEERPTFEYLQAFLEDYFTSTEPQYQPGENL
Chain of EGFR (P00533 25-1210): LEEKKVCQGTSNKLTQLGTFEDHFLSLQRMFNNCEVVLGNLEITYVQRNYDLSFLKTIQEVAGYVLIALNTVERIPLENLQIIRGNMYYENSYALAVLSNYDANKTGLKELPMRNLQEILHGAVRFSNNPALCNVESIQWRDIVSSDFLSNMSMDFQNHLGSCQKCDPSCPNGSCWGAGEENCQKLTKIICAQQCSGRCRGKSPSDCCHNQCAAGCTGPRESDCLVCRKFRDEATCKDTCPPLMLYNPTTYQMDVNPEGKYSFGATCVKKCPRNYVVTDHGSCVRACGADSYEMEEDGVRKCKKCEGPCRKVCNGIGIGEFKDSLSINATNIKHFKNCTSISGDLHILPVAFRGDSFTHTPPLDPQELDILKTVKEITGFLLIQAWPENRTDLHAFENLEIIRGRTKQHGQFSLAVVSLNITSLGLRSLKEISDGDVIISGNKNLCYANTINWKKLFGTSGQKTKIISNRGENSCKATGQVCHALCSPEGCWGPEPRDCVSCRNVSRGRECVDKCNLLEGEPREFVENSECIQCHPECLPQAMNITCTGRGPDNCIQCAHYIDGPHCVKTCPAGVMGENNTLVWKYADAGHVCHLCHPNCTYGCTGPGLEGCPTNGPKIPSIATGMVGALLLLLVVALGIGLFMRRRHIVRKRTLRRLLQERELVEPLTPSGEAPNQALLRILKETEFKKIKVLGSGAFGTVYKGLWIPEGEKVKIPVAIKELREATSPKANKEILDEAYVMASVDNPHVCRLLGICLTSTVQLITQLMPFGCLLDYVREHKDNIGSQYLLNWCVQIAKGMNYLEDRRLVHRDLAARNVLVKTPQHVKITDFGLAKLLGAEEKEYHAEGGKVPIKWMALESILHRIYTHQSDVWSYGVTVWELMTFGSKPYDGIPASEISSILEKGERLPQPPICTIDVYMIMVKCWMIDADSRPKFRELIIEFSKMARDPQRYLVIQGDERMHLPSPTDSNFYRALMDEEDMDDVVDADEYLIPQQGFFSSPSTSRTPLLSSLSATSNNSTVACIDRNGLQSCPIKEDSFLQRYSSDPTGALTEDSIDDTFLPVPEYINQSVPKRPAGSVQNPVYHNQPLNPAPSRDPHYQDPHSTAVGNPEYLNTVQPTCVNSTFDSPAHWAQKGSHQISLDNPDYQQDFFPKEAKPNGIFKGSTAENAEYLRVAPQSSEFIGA
Chain of LCK (P06239 whole entry): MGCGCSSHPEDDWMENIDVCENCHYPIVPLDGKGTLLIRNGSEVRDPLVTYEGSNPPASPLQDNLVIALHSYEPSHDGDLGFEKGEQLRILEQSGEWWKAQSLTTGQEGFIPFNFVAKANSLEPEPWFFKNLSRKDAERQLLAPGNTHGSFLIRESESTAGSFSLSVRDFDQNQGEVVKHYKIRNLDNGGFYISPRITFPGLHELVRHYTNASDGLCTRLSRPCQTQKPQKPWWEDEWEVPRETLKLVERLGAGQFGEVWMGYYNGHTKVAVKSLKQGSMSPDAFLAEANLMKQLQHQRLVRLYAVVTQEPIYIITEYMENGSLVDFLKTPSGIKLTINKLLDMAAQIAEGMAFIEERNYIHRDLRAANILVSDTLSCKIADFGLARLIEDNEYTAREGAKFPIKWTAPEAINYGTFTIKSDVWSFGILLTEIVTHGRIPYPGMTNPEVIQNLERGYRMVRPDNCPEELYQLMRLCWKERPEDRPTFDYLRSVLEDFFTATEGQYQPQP

Row | Structure (SMILES) | IC50 (JAK3; E compounds, Table 17) [nM] | IC50 (EGFR; E compounds, Table 17) [nM] | IC50 (ITK; E compounds, Table 17) [nM] | IC50 (LCK; E compounds, Table 17) [nM] | IC50 (TEC; E compounds, Table 17) [nM] | IC50 (SRC; E compounds, Table 17) [nM] | IC50 (JAK3; [1]) [nM] | IC50 (EGFR; [1]) [nM] | IC50 (ITK; [1]) [nM] | IC50 (LCK; [1]) [nM] | IC50 (TEC; [1]) [nM] | IC50 (SRC; [1]) [nM]
1 | Cc1cc(Nc2nc(N3CC[C@H](O)[C@@H](N4CCC[C@@H](Nc5cc(Cl)cc(C(F)(F)F)c5)C4=O)C3)nnc2C(N)=O)sn1 [Example E-10, 3-((3R,3'S,4'S)-3-(3-chloro-5-(trifluoromethyl)phenylamino)-4′-hydroxy-2-oxo-1,3′-bipiperidin-1-yl)-5-(3-methylisothiazol-5-ylamino)-1,2,4-triazine-6-carboxamide] | 1000 to 10000 | 10 to 100 | ≤ 10 | < 10 | 10 to 100 | ≤ 10 |  |  |  |  |  | 
2 | CN1CCC(n2cc(Nc3nc(N4CCC[C@@H](n5ccc6cc(C7CC7)ccc6c5=O)C4)cnc3C(N)=O)cn2)CC1 [Example A-178, 5-[(3R)-3-(6-cyclopropyl-1-oxo-1,2-dihydroisoquinolin-2-yl)piperidin-1-yl]-3-{[1-(1-methylpiperidin-4-yl)-1H-pyrazol-4-yl]amino}pyrazine-2-carboxamide] |  |  |  |  |  |  | 1000 to 10000 | 1000 to 10000 | 100 to 1000 | 100 to 1000 | 10 to 100 | 100 to 1000
3 | C[C@@H]1[C@H](NC(=O)c2ccc(C3CC3)cc2F)CCCN1c1cnc(C(N)=O)c(Nc2ccc(N3CCN(C)CC3)c(F)c2)n1 [Example A-171, 5-[(2R,3R)-3-(4-cyclopropyl-2-fluorobenzamido)-2-methylpiperidin-1-yl]-3-{[3-fluoro-4-(4-methylpiperazin-1-yl)phenyl]amino}pyrazine-2-carboxamide] |  |  |  |  |  |  | 1000 to 10000 | 100 to 1000 | 100 to 1000 | 10 to 100 | 10 to 100 | 10 to 100
4 | C[C@@H]1[C@H](NC(=O)c2ccc(C3CC3)cc2Cl)CCCN1c1cnc(C(N)=O)c(Nc2ccc(N3CCN(C)CC3)cc2)n1 [Example A-180, 5-[(2R,3R)-3-(2-chloro-4-cyclopropylbenzamido)-2-methylpiperidin-1-yl]-3-{[4-(4-methylpiperazin-1-yl)phenyl]amino}pyrazine-2-carboxamide] |  |  |  |  |  |  | 1000 to 10000 | 100 to 1000 | 100 to 1000 | 10 to 100 | 10 to 100 | 100 to 1000
5 | C[C@@H]1[C@H](NC(=O)c2ccc(C3CC3)cc2F)CCCN1c1cnc(C(N)=O)c(Nc2ccc(C(=O)N3CCN(C)CC3)cc2)n1 [Example A-122, 5-[(2R,3R)-3-(4-cyclopropyl-2-fluorobenzamido)-2-methylpiperidin-1-yl]-3-{[4-(4-methylpiperazine-1-carbonyl)phenyl]amino}pyr-azine-2-carboxamide] |  |  |  |  |  |  | 100 to 1000 | 100 to 1000 | 100 to 1000 | 100 to 1000 | 10 to 100 | 100 to 1000
6 | C[C@@H]1[C@H](NC(=O)c2ccc(C3CC3)cc2F)CCCN1c1cnc(C(N)=O)c(Nc2ccc(N3CCN(C4CCCC4)CC3)cc2)n1 [Example A-125, 3-{[4-(4-cyclopentylpiperazin-1-yl)phenyl]amino}-5-[(2R,3R)-3-(4-cyclopropyl-2-fluorobenzamido)-2-methylpiperidin-1-yl]pyrazine-2-carboxamide] |  |  |  |  |  |  | 100 to 1000 | 100 to 1000 | 100 to 1000 | 100 to 1000 | 10 to 100 | 10 to 100
7 | COCCn1cc(Nc2nc(N3CCC[C@@H](NC(=O)c4ccc(C5CC5)cc4)[C@H]3C)cnc2C(N)=O)cn1 [Example A-186, 5-((2R,3R)-3-(4-cyclopropylbenzamido)-2-methylpiperidin-1-yl)-3-(1-(2-methoxylethyl)-1H-pyrazol-4-ylamino)pyrazine-2-carboxamide] |  |  |  |  |  |  | 1000 to 10000 | 1000 to 10000 | 100 to 1000 | 100 to 1000 | 100 to 1000 | 100 to 1000
8 | C[C@@H]1[C@H](NC(=O)c2ccc(C3CC3)cc2)CCCN1c1cnc(C(N)=O)c(Nc2ccc(OC3CCN(C)C3)cc2)n1 (stereo partly drawn) [Example E-136, 5-((2R,3R)-3-(4-cyclopropylbenzamido)-2-methylpiperidin-1-yl)-3-((4-((1-methylpyrrolidin-3-yl)oxy)phenyl)amino) pyrazine-2-carboxamide] | 100 to 1000 | 100 to 1000 | 10 to 100 | 10 to 100 | ≤ 10 | 10 to 100 |  |  |  |  |  | 
9 | C[C@@H]1[C@H](NC(=O)c2ccc(C(C)(C)O)cc2)CCCN1c1cnc(C(N)=O)c(Nc2ccc(C3(C)CCN(C4CC4)CC3)cc2)n1 [Example E-147, 3-((4-(1-cyclopropyl-4-methylpiperidin-4-yl)phenyl)amino)-5-((2R,3R)-3-(4-(2-hydroxypropan-2-yl)benzamido)-2-methylpiperidin-1-yl)pyrazine-2-carboxamide] | 100 to 1000 | 100 to 1000 | 10 to 100 | < 10 | ≤ 10 | ≤ 10 |  |  |  |  |  | 
10 | Cn1cc(Nc2nc(N3C[C@H](NC(=O)c4ccc(C5CC5)cc4)CC(F)(F)C3)cnc2C(N)=O)cn1 [Example A-188, (R)-5-(5-(4-cyclopropylbenzamido)-3,3-difluoropiperidin-1-yl)-3-(1-methyl-1H-pyrazol-4-ylamino)pyrazine-2-carboxamide] |  |  |  |  |  |  | 1000 to 10000 | 1000 to 10000 | 1000 to 10000 | 100 to 1000 | 100 to 1000 | 100 to 1000
11 | COCCN(C)Cc1cc(Nc2nc(N3CCC[C@@H](NC(=O)c4ccc(C5CC5)cc4)[C@H]3C)cnc2C(N)=O)sn1 [Example A-185, 5-((2R,3R)-3-(4-cyclopropylbenzamido)-2-methylpiperidin-1-yl)-3-(3-(((2-methoxyethyl)(meth-yl)amino)meth-yl)isothiazol-5-ylamino)pyr-azine-2-carboxamide] |  |  |  |  |  |  | 1000 to 10000 | > 10000 | 100 to 1000 | 100 to 1000 | 100 to 1000 | 10 to 100

— US20210070748A1, “INHIBITORS OF BRUTONS TYROSINE KINASE” (Pharmacyclics LLC, priority 2015, published 2021)
